# Assay results reported in PMC5806882, “Structural and biochemical characterization of the biuret hydrolase (BiuH) from the cyanuric acid catabolism pathway of Rhizobium leguminasorum bv. viciae 3841” (PLoS ONE, 2018).
# Biological target: biuret hydrolase (BiuH) (Rhizobium johnstonii, UniProt Q1M7F4, C175S)
# Test: X-ray crystal structure, […] Å
# Assay type: binding
# biuret hydrolase (BiuH), sequence (Q1M7F4 whole entry C175S): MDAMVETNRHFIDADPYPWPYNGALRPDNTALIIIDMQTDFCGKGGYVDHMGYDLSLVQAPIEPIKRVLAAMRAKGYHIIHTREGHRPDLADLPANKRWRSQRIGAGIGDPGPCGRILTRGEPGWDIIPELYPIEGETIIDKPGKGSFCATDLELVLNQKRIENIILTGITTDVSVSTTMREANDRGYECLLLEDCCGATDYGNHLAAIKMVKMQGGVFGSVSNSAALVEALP
smiles,measurement,value
NC(=O)NC(N)=O [biuret],"X-ray crystal structure, 2.22 Å",A structure of the inactive Cys175Ser variant with biuret in the active site was obtained (PDB ID: 6AZQ).
